Earlier results in patent US20260130846A1, “ORAL PRODUCT” (NICOVENTURES TRADING LIMITED, priority 2022, published 2026).

Tests used:
[1] = humans
[2] = mammals

CCNC(=O)CC[C@H](N)C(=O)O [Theanine, L-γ-glutamylethylamide]
Absorption; plasma levels after oral consumption [1]: rapidly absorbed, with plasma levels rising in a linear dose-related manner
Time for which brain levels continue to increase after consumption [2]: 4 h
